Assay results from patent publication US7595401B2, “Therapeutic compounds and their use in cancer” (Myriad Pharmaceuticals, Inc., priority 2006, dated 2009).

Target: purified human Hsp90
Test: Binding Assay: fluorescence polarization with BODIPY-labeled geldanamycin
Conditions: BODIPY-GM 10 nM, Hsp90 30 nM
Outline: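 Fluorescence polarization competition with BODIPY-geldanamycin (10 nM final) and human Hsp90 (30 nM final) in HEPES-KOH pH 7.3 buffer with molybdate, NP-40, DTT; 2% DMSO, overnight at room temperature. Read 485/530 nm; percent inhibition from mP normalized to DMSO controls, fluorescent-compound points excluded.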

Compound	IC50 [nM]	% Inhibition at 5 μM Compound Concentration [%]
CC(=O)N1CCC[C@H]1C(=O)N1CCC(CCn2c(Sc3cc4c(cc3Br)OCO4)nc3c(N)ncnc32)CC1 [Example 776, 9-{2-[1-(1-Acetyl-L-prolyl)piperidin-4-yl]ethyl}-8-[(6-bromo-1,3-benzodioxol-5-yl)thio]-9H-purin-6-amine]	310	–
CC(=O)N1CCC(CCn2c(Sc3nc4ccc([N+](=O)[O-])cc4s3)nc3c(N)ncnc32)CC1 [Example 651, 9-[2-(1-Acetylpiperidin-4-yl)ethyl]-8-[(6-nitro-1,3-benzothiazol-2-yl)thio]-9H-purin-6-amine]	> 5000	–
COc1ccc(OC)c(Sc2nc3c(N)ncnc3n2CCc2ccc(-c3ccccc3)cc2)c1 [Example 181, 9-(2-Biphenyl-4-yl-ethyl)-8-(2,5-dimethoxy-phenylsulfanyl)-9H-purin-6-ylamine]	> 25000	–
CC(C)(C)OC(=O)N1CCC(CCn2cnc(N)c3nc(Sc4cc5c(cc4Br)OCO5)nc2-3)C1 (stereo not drawn) [Example 413, tert-Butyl 3-(2-{6-amino-8-[(6-bromo-1,3-benzodioxol-5-yl)thio]-3H-purin-3-yl}ethyl)pyrrolidine-1-carboxylate]	–	28
Nc1ncnc2c1nc(Sc1ccc3c(c1)OCO3)n2CCc1ccc([N+](=O)[O-])cc1 [Example 7, 8-(Benzo[1,3]dioxol-5-ylsulfanyl)-9-[2-(4-nitro-phenyl)-ethyl]-9H-purin-6-ylamine]	–	22
CCn1nnnc1N1CCC(CCn2cnc(N)c3nc(Sc4cc5c(cc4Br)OCO5)nc2-3)CC1 [Example 611, 8-[(6-Bromo-1,3-benzodioxol-5-yl)thio]-3-{2-[1-(1-ethyl-1 H-tetrazol-5-yl)piperidin-4-yl]ethyl}-3 H-purin-6-amine]	–	22.00
COc1cc(CCn2c(Sc3cc4c(cc3Br)OCO4)nc3c(N)ncnc32)cc(OC)c1 [Example 195, 8-(6-Bromo-benzo[1,3]dioxol-5-ylsulfanyl)-9-[2-(3,5-dimethoxy-phenyl)-ethyl]-9H-purin-6-ylamine]	79	80
COc1ccc(OC)c(Sc2nc3c(N)ncnc3n2CCc2ccc3c(c2)OCO3)c1 [Example 167, 9-(2-Benzo[1,3]dioxol-5-yl-ethyl)-8-(2,5-dimethoxy-phenylsulfanyl)-9H-purin-6-ylamine]	> 25000	44
CC(C)(C)OC(=O)CN1CCCCC1CCn1c(Sc2cc3c(cc2Br)OCO3)nc2c(N)ncnc21 (stereo not drawn) [Example 645, tert-Butyl [2-(2-{6-amino-8-[(6-bromo-1,3-benzodioxol-5-yl)thio]-9 H-purin-9-yl}ethyl)piperidin-1-yl]acetate]	450	–
CC(C)[C@H]1C[C@H](CCn2c(Sc3cc4c(cc3Br)OCO4)nc3c(N)ncnc32)CCN1 (relative stereo) [Example 479, 8-[(6-bromo-1,3-benzodioxol-5-yl)thio]-9-{2-[trans-2-isopropylpiperidin-4-yl]ethyl}-9 H-purin-6-amine]	199	–
CC(C)(C)OC(=O)NC(CCn1cnc(N)c2nc(Sc3cc4c(cc3Br)OCO4)nc1-2)C1CCC1 (stereo not drawn) [Example 673, tert-Butyl(3-{6-amino-8-[(6-bromo-1,3-benzodioxol-5-yl)thio]-3H-purin-3-yl}-1-cyclobutylpropyl)carbamate]	–	0
Nc1ncnc2c1nc(Sc1cccc(OC(F)F)c1)n2CCc1c(Cl)cccc1Cl [Example 253, 9-[2-(2,6-Dichlorophenyl)ethyl]-8-{[3-(difluoromethoxy)phenyl]thio}-9H-purin-6-amine]	> 8000	–
Nc1ncnc2c1nc(Sc1ccc3c(c1)OCO3)n2CCCn1cccc1 [Example 51, 8-(Benzo[1,3]dioxol-5-ylsulfanyl)-9-(3-pyrrol-1-yl-propyl)-9H-purin-6-ylamine]	1500	52
CC(C)NC(=O)N1CCCC(CCn2c(Sc3cc4c(cc3Br)OCO4)nc3c(N)ncnc32)C1 (stereo not drawn) [Example 436, 3-(2-{6-Amino-8-[(6-bromo-1,3-benzodioxol-5-yl)thio]-9H-purin-9-yl}ethyl)-N-isopropylpiperidine-1-carboxamide]	390	–
COc1ccc(C)cc1Sc1nc2c(N)ncn(CCc3ccccc3)c-2n1 [Example 315, 8-[(2-Methoxy-5-methylphenyl)thio]-3-(2-phenylethyl)-3H-purin-6-amine]	–	21.0
CC(=O)N1CCC(CCn2cnc(N)c3nc(Sc4nc5ccc([N+](=O)[O-])cc5s4)nc2-3)CC1 [Example 652, 3-[2-(1-Acetylpiperidin-4-yl)ethyl]-8-[(6-nitro-1,3-benzothiazol-2-yl)thio]-3H-purin-6-amine]	–	0.00
CC(C)(C)OC(=O)NC(CCn1c(Sc2cc3c(cc2Br)OCO3)nc2c(N)ncnc21)C1CCCC1 (stereo not drawn) [Example 681, {3-[6-Amino-8-(6-bromo-benzo[1,3]dioxol-5-ylsulfanyl)-purin-9-yl]-1-cyclopentyl-propyl}-carbamic acid tert-butyl ester]	1000	–
COc1ccnc(Sc2nc3c(N)ncnc3n2CCC2CCN(C=O)CC2)c1 [Example 538, 4-(2-{6-Amino-8-[(4-methoxypyridin-2-yl)thio]-9 H-purin-9-yl}ethyl)piperidine-1-carbaldehyde]	1600	–

Compound	IC50 [nM]	% Inhibition at 5 μM Compound Concentration [%]
Nc1ncn(CCC(N)C2CC2)c2nc(Sc3cc4c(cc3Br)OCO4)nc1-2 (stereo not drawn) [Example 688, 3-(3-Amino-3-cyclopropylpropyl)-8-[(6-bromo-1,3-benzodioxol-5-yl)thio]-3H-purin-6-amine]	–	30
COc1ccc(OC)c(Sc2nc3c(N)ncn(CCN4CCN(C5CCCC5)CC4)c-3n2)c1 [Example 495, 3-[2-(4-Cyclopentylpiperazin-1-yl)ethyl]-8-[(2,5-dimethoxyphenyl)thio]-3 H-purin-6-amine]	–	6
CC(C)N1CCCCC1CCn1c(Sc2cc3c(cc2Br)OCO3)nc2c(N)ncnc21 (stereo not drawn) [Example 445, 8-[(6-Bromo-1,3-benzodioxol-5-yl)thio]-9-[2-(1-isopropylpiperidin-2-yl)ethyl]-9H-purin-6-amine]	305	–
COc1ccc(OC)c(Sc2nc3c(N)ncnc3n2CCC(NC(=O)OC(C)(C)C)C2CCSCC2)c1 (stereo not drawn) [Example 668, tert-Butyl[3-{6-amino-8-[(2,5-dimethoxyphenyl)thio]-9H-purin-9-yl}-1-(tetrahydro-2H-thiopyran-4-yl)propyl]carbamate]	4800	–
Cc1ccsc1Sc1nc2c(N)ncn(CCC3CCN(C=O)CC3)c-2n1 [Example 547, 4-(2-{6-Amino-8-[(3-methyl-2-thienyl)thio]-3 H-purin-3-yl}ethyl)piperidine-1-carbaldehyde]	–	12.00
COc1ccc(OC)c(Sc2nc3c(N)ncnc3n2CC(c2ccccc2)C2CCCCC2)c1 (stereo not drawn) [Example 179, 9-(2-Cyclohexyl-2-phenyl-ethyl)-8-(2,5-dimethoxy-phenylsulfanyl)-9H-purin-6-ylamine]	–	8
COc1ccc(OC)c(Sc2nc3c(N)ncnc3n2CCC2CCCNC2)c1 (stereo not drawn) [Example 470, 8-[(2,5-Dimethoxyphenyl)thio]-9-(2-piperidin-3-ylethyl)-9 H-purin-6-amine]	280	–
COc1ccc(OC)c(Sc2nc3c(N)ncnc3n2CCc2ccc(F)cc2Cl)c1 [Example 139, 9-[2-(2-chloro-4-fluoro-phenyl)-ethyl]-8-(2,5-dimethoxy-phenylsulfanyl)-9H-purin-6-ylamine]	90	–
CS(=O)(=O)N1CCCC(CCn2cnc(N)c3nc(Sc4cc5c(cc4Br)OCO5)nc2-3)C1 (stereo not drawn) [Example 370, 8-[(6-Bromo-1,3-benzodioxol-5-yl)thio]-3-{2-[1-(methylsulfonyl)piperidin-3-yl]ethyl}-3H-purin-6-amine]	600	–
COC(=O)c1ccnc(Sc2nc3c(N)ncn(CCC4CCN(C=O)CC4)c-3n2)c1 [Example 543, Methyl 2-({6-amino-3-[2-(1-formylpiperidin-4-yl)ethyl]-3 H-purin-8-yl}thio)isonicotinate]	–	0.00
Nc1ncnc2c1nc(Sc1cccc(OC(F)F)c1)n2CCc1ccccc1 [Example 252, 8-{[3-(Difluoromethoxy)phenyl]thio}-9-(2-phenylethyl)-9H-purin-6-amine]	> 25000	–
Cc1ccc(CCn2c(Sc3cc4c(cc3Br)OCO4)nc3c(N)ncnc32)cc1 [Example 163, 8-(6-Bromo-benzo[1,3]dioxol-5-ylsulfanyl)-9-(2-p-tolyl-ethyl)-9H-purin-6-ylamine]	–	>10
CO[C@H](C)C(=O)N1CCC(CCn2cnc(N)c3nc(Sc4cc5c(cc4Br)OCO5)nc2-3)CC1 [Example 726, 8-[(6-Bromo-1,3-benzodioxol-5-yl)thio]-3-(2-{1-[(2R)-2-methoxypropanoyl]piperidin-4-yl}ethyl)-3 H-purin-6-amine]	–	26
CCOc1ccc(OCC)c(Sc2nc3c(N)ncn(CCc4ccccc4)c-3n2)c1 [Example 190, 8-(2,5-diethoxy-phenylsulfanyl)-3-phenethyl-3H-purin-6-ylamine]	–	8
Nc1ncnc2c1nc(Sc1cc3c(cc1Br)OCO3)n2CCc1cccc(F)c1F [Example 161, 8-(6-Bromo-benzo[1,3]dioxol-5-ylsulfanyl)-9-[2-(2,3-difluoro-phenyl)-ethyl]-9H-purin-6-ylamine]	320	17
COc1ccc(OC)c(Sc2nc3c(N)ncn(CC(c4ccccc4)C4CCCCC4)c-3n2)c1 (stereo not drawn) [Example 180, 3-(2-cyclohexyl-2-phenyl-ethyl)-8-(2,5-dimethoxy-phenylsulfanyl)-3H-purin-6-ylamine]	–	>10
Nc1ncn(CCC2CCN(C=O)CC2)c2nc(Sc3cc4c(cc3Br)OCO4)nc1-2 [Example 602, 4-(2-{6-Amino-8-[(6-bromo-1,3-benzodioxol-5-yl)thio]-3 H-purin-3-yl}ethyl)piperidine-1-carbaldehyde]	–	31.00
